This note sets out measurements from patent US9884851B2, “Heterocycle-bisamide inhibitors of scavenger receptor BI” (THE BROAD INSTITUTE, INC., priority 2012, dated 2018).

As usually defined, the EC50 is the midpoint of the concentration-response curve. Usually IC50 stands for the concentration needed to halve the response being measured. High values mean a need for much substance, low ones inhibition by little substance.

Series [1] in a line: Cell cytotoxicity assay (CellTiter-Glo). Conditions: Chinese hamster, ldlA[mSR-BI] cells. As to the method:
It is possible that a compound will cause cells to decrease HDL-mediated DiI uptake due to nonspecific consequences of cellular toxicity, representing a second class of false positive hits. The cells were treated with compounds for 3 hours or 24 hours, and then cell viability was measured using the CellTiter-Glo Assay (Promega), a luciferase-based reagent that measures cellular ATP levels. The compounds were tested at different concentrations to determine IC50 values. […] Data were normalized against DMSO and the positive control (1 μM BLT-1) in Genedata Assay Analyzer.
All available dry powder samples of the remaining, non-quenching compounds were procured from commercial sources and purities were determined. The compounds obtained were then retested in the primary assay and in cytotoxicity assays. We wanted to rule out any compounds that were cytotoxic, especially in the 3-hour time span of the primary DiI-HDL uptake assay. Therefore, compounds were tested in ldl[mSR-BI] cells for cytotoxicity at 3 hours and 24 hours using the CellTiter-Glo assay (Promega) that measures cellular ATP as a marker of cell viability. […] Compounds were screened for inhibition of endocytosis using labeled transferrin, which is known to bind the transferrin receptor, enter cells by clathrin-mediated endocytosis, and move to endosomes before being recycled to the cell surface.
On the technique in general: ATP-based viability assays read luminescence as a measure of living cells.

A further series in a line: Stability to GSH. The format is physicochemical. The source says:
Probe 2 (ML279) can potentially act as an electrophile under biological conditions, with its tetrazole alpha to the western amide.

Series [2] in a line: Stability in human plasma. Conditions: 5-hour incubation. The format is in vitro ADME. As to the method:
(§1) We noticed that the concentration of the probe fluctuated through the course of the assay (data not shown). We believe that this fluctuation is due to the low kinetic solubility of the probe. Thus, we decided to determine the amount of undissolved probe present in the well after it was treated with PBS for a given length of time, relative to the amount of undissolved probe at the start of the assay. The wells were centrifuged and the supernatant was removed after various time points, then acetonitrile was added to dissolve the remaining solid in the wells, and the amount of probe was quantified. […] The stability of the probe was confirmed by measuring stability in human plasma, with >99% remaining after a 5-hour incubation period. […] FIG. 5 summarizes known properties of the probe.

The nature of another series: Stability in PBS. The format is physicochemical. Conditions: 1% DMSO, over 48 hours. As to the method: as §1

With `C[C@H](C(=O)NC1CCCC1)N(C(=O)Cn1nnc(-c2ccc3c(c2)OCO3)n1)C1CCCCC1` [ML279, (R)-2-(2-(5-(Benzo[d][1,3]dioxol-5-yl)-2H-tetrazol-2-yl)-N-cyclohexylacetamido)-N-cyclopentylpropanamide], in series [1], the EC50 at 24 h was above 35 µM and the IC50 at 24 h was above 35 µM. Besides, in the series “Stability to GSH”, the “stability to GSH (in words)” value is reported as “stable to GSH”. Also, in series [2], the “stability in human plasma, remaining” value is listed as above 99%. The “stability in PBS (in words)” value in the series “Stability in PBS” is reported as “stable to PBS”.
